From US20080221021A1, “Novel Corticotropin-Releasing Factor Receptor 1 (Crfr1) Agonist” (Max-Planck-Gesellschaft Zur Forderung Der, priority 2004, published 2008) come the findings set out here.

“Also recorded” adds a separate entry of the source. Where no end group is shown, it is not given here.

One data set deals with T1, mCRFR2β (Mus musculus, UniProt Q60748).
T1 construct: expressed in transfected cells
Description: Agonist-induced intracellular cAMP accumulation in HEK 293 cells producing mCRFR2β. It is filed as cell-based. Particulars: in words. The method, then: The biological potency of cortagine and OCRF was evaluated by the determination of the EC50 values for agonist-induced intracellular accumulation of cAMP in HEK 293 cells producing either rCRFR1 or mCRFR2β.
The HEK 293 cells were plated into 24 well cell culture plates and stimulated as described (21) using increasing concentrations of the agonists under investigation. Intracellular cAMP was measured with the Biotrak™ cAMP [^125I] SPA system (Amersham Pharmacia Biotech) according to the manufacturer's product manual.

Data set [1] can be described thus: Maximum solubility in aCSF by amino acid analysis. It is filed as physicochemical. Particulars: pH 7.4. The method, then: (§1) After dissolving the peptides in artificial cerebrospinal fluid (aCSF; 124 mM NaCl, 26.4 mM NaHCO3, 10 mM glucose, 3.3 mM KCl, 2.5 mM CaCl2 , 2.4 mM MgSO4 , 1.2 mM KH2PO4) at pH=7.4, the maximum solubility cmax was determined by amino acid analysis as described (21). The isoelectric point of the peptides was determined by isoelectric focusing (IEF) as described (21) with a Bio-Rad IEF cell system using Bio-Rad IEF strips in the pH range 3-10.

Data set [2] can be described thus: Isoelectric point by isoelectric focusing. It is filed as physicochemical. Particulars: IEF, pH range 3-10. The method, then:
as §1

Another data set concerns C57BL/6J mice. As to the kind of experiment: Forced swim test, i.c.v. injection. It is filed as in vivo, mouse. On the procedure:
Nine-week old male C57BL/6J (Centre D'Elevage Janvier, Sultzfeld, France) were individually housed in macrolon cages according to the recommendations of the Society for Laboratory Animal Science (Germany). All experiments were carried out in accordance with the European Council Directive (86/609/EEC) with the permission of the Animal Protection Law enforced by the District Government of Braunschweig, State of Lower Saxony, Germany, which is in full agreement with the APA ethical guidelines. All efforts were made to minimize animal suffering. The number of mice per group was 9-11.
All peptides were dissolved in aCSF except for the CRFR2-selective antagonist antisauvagine-30 (aSvg-30) (20) that was initially dissolved in 10 mM aqueous acetic acid and diluted with the same volume of two-fold concentrated aCSF. The final pH of the peptide solutions was 7.4. The exact peptide concentration of the injection solutions was determined by amino acid analysis with a Beckman HPLC analyzer system 6300. Total hydrolysis of the peptides was carried out in the presence of 1 nmol norvaline as internal standard with 6 M HCl for 24 h at 100° C.
For the forced swim test (FST), C57BL/6J mice cannulated in the lateral ventricles were subjected to swim sessions in individual glass cylinders (height 39 cm, diameter 21.7 cm) containing water, 15-cm deep, at 23-25° C. On day 1, all animals were placed in the cylinder for a preswim session of 15 min. On the test day 24 h later (day 2), the mice were subjected to a testswim session for 6 min. The water was changed between subjects. All testswim sessions were recorded by a video camera positioned directly above the cylinder. A component observer blind to treatment scored the videotapes. The behavioral measure scored was the duration of immobility, defined as time spent still or only using righting movements to keep the head over water. An increase in immobility time was interpreted as an increase of depression-like behavior. In all behavioral experiments, the cannula placement was confirmed for each mouse by histological examination of the brains after methylene blue injection (23). The behavioral data are expressed as mean±SEM, and were analysed using a two- and one-way ANOVA, with Bonferri/Dunn test applied, post hoc, for individual between-group comparisons at the p<0.05 level of significance.

T1 sequence (Q60748 1-431 isoform Q60748-2): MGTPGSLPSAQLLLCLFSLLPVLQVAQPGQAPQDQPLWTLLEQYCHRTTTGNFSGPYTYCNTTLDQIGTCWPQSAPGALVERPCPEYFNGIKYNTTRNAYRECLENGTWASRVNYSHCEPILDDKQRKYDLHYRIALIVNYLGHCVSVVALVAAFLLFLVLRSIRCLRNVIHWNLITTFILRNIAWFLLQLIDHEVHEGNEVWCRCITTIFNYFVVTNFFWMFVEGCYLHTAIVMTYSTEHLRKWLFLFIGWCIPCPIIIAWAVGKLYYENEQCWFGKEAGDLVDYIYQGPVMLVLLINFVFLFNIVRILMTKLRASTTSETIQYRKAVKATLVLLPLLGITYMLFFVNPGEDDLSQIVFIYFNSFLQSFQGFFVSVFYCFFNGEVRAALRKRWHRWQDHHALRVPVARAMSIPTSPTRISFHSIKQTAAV

As for “[Glu^21, Ala^40] [Svg^1-12]x[h/rCRF^14-30]x[Svg^30-40] (XGPPISIDLSLELLREVLEMERAEQLAQQAANNRLLLDTA; X not resolved here; ends and bridges not checked; also: Glx at position 1 not given here (Gln/Glu/pGlu)) [cortagine]”, in the data set with mCRFR2β, the “biological potency at mCRFR2β compared with rCRFR1” value was “about one to two orders of magnitude lower”. For the same substance, the maximal solubility cmax entry in data set [1] is “up to 1000 μM”. Further, in data set [2], the “isoelectric point pI” value is 4.8. For the same substance, the “immobility time during the testswim session 24 h later (day 2)” value in the data set with C57BL/6J mice (300 ng i.c.v. 30 min before preswim (day 1)) was “significantly reduced immobility time in comparison to oCRF-injected mice; also recorded: decrease of the immobility lime; also recorded: significant decrease”. The “immobility time during the preswim session” value with C57BL/6J mice (300 ng i.c.v. 30 min before preswim (day 1), vs aCSF) is on record as “significantly decreased the immobility time”. In addition, the “immobility time during the testswim session” value in the data set with C57BL/6J mice (300 ng i.c.v. 30 min before testswim (day 2), vs aCSF) is given as “significantly decreased the immobility time”. For the same substance, the “floating time in the FST” value with C57BL/6J mice (mice) is on record as “reduced significantly”.
